Measurements taken from patent US20170136008A1, “OXABICYCLOHEPTANES AND OXABICYCLOHEPTENES FOR THE TREATMENT OF OVARIAN CANCER” (priority 2014, published 2017).

What was measured:
[1] = system: HEK 293 human embryonic kidney cell lines overexpressing Pgp, MRP1, or ABCG2; assay: IC50 in ABC transporter-overexpressing HEK 293 lines; assay type: cell-based; conditions: HEK 293 overexpressing Pgp
Method: When HEK 293 human embryonic kidney cell lines overexpressing Pgp, MRP1, or ABCG2 (Robey, R. W. et al. 2005) were treated with equal concentration of LB100, the IC50s of the transfected lines were not different compared with parent (non-transporter-expressing) cells or in the presence of an inhibitor (tariquidar) (FIG. 5).

[2] = system: p-Chk1 (S345) and apoptosis proteins in OVCAR-8 cells; assay: Immunoblotting, OVCAR-8 cells; assay type: cell-based, human; conditions: after 1 h cisplatin, recovery up to 8 h, vs media alone
Method: Whole cell and homogenized tumor tissues were lysed in NP-40 lysis buffer [50 mM Tris/HCl, pH 7.4, 150 mM NaCl and 1% Nonidet P40, supplemented with Complete Protrase Inhibitor Cocktail tablets and PhosStop phosphatase inhibitors (Roche, Indianapolis, Ind.)] and prepared as previously described (Madigan, J. P. et al. 2009). Protein (40 μg) was resolved on SDS/PAGE (12% or 15% gels) and transferred onto Immobilon PVDF membrane. The membrane was then blocked for 1 hour at room temperature in 5% (w/v) non-fat milk in TBS-Tween and probed overnight with primary antibodies. After extensive washing, cells were probed with anti-rabbit or anti-mouse IgG-horseradish per oxidase (HRP)-conjugated secondary antibodies (Cell Signaling Technology, Danvers, Mass.) in blocking buffer for 1 h. Membranes were subsequently incubated in Immobilon Western blot Chemiluminescent HRP Substrate (Millipore) and developed on biomax XAR film (Kodak). Antibodies were purchased from Cell Signaling Technology: γH2AX (Ser139), p-Wee1 (Ser 642), Wee1, p-cdc2 (Tyr15), p-BRCA1 (Ser1524), p-Chk1 (Ser345), p-Chk1 (Ser317), Chk-1, phospho-Chk2 (Thr68), PP2Ac, cleaved caspase-3 (Asp175), cleaved PARP (Asp214), p-histone H3 (Ser10), p-ATR (Ser428), and p-(Ser)14-3-3 binding motif. […]

[3] = system: ovarian cancer cell lines; assay: MTT cytotoxicity assay, ovarian cancer cell line panel; assay type: cell-based; conditions: Homo sapiens, SK-OV-3; ovarian lines other than SKOV-3
Method: Cell survival was measured by the 3-(4,5-dimethylthiazol-2-yl)-2,5-diphenyltetrazolium bromide (MTT, Invitrogen) assay. Cells were seeded at a density of 5,000 cells per well in 96-well plates and incubated at 37° C. in humidified 5% CO2 for 24 hours. The 50% inhibitory concentration (IC50) values were defined as the drug concentrations required to reduce cellular proliferation to 50% of the untreated control well. […] All MTT assays were carried out according to the manufacturer's instructions (Molecular Probes, Eugen, Oreg.). Absorbance values were determined at […] on a Spectra Max 250 spectrophotometer (Molecular Devices, Sunnyvale, Calif.). All MTT assays were performed in triplicate. […] Cells were treated with both drugs for 72 h. Cell viability was analyzed via the MTT assay as described above. Experiments were performed in triplicate, and the data are presented as a percent mean±SD.
SKOV-3 and OVCAR-8 cells have previously been described as p53 null and harboring an inactivating p53 mutation, respectively (Debernardis, D. et al. 1997). […] The […] carry a BRCA2 missense (n) and STOP (s) mutation, respectively (Langdon, S. P. et al. 1988).

SMILES: CN1CCN(C(=O)C2C(C(=O)O)[C@H]3CC[C@@H]2O3)CC1 (stereo partly drawn) [LB100]
- IC50s of transfected lines compared with parent cells or in the presence of tariquidar [1]: not different
- phosphorylation of Chk1 at S345 [2]: significantly increased
- IC50 [3]: 5.7 µM
